Results on one compound are retold here after US6337334B1, “Pyrimidine derivatives” (Kowa Co., Ltd., priority 1994, dated 2002).

Where a name gives a salt, the structure may show the parent alone.

Regarding `CCNC(=O)CCOc1nc(-c2ncccn2)nc(NS(=O)(=O)c2ccc(C(C)(C)C)cc2)c1Oc1ccccc1OC` (as salt: sodium) [Compound No. 49, N-ethyl-3-[6-(4-t-butylphenylsulfonylamino)-5-(2-methoxyphenoxy)-2-(2-pyrimidinyl)-4-pyrimidinyloxy]-propionamide], the melting point (in general, the temperature, or range, at which the solid turns liquid) was 117 to 120 °C.
